Laboratory results reported in patent US9382197B2, “Substituted hydroxamic acids and uses thereof” (Millennium Pharmaceuticals, Inc., priority 2010, dated 2016).

target: T1, purified human HDAC6 (Homo sapiens, UniProt Q9UBN7); experiment: HDAC6 Enzyme Assay; type: biochemical; conditions: bin: greater than 500 nM and less than 1 μM (lower bound in nM, upper bound in μM)
T1 construct: purchased BPS Bioscience 5006
T1 sequence (Q9UBN7 1-1215): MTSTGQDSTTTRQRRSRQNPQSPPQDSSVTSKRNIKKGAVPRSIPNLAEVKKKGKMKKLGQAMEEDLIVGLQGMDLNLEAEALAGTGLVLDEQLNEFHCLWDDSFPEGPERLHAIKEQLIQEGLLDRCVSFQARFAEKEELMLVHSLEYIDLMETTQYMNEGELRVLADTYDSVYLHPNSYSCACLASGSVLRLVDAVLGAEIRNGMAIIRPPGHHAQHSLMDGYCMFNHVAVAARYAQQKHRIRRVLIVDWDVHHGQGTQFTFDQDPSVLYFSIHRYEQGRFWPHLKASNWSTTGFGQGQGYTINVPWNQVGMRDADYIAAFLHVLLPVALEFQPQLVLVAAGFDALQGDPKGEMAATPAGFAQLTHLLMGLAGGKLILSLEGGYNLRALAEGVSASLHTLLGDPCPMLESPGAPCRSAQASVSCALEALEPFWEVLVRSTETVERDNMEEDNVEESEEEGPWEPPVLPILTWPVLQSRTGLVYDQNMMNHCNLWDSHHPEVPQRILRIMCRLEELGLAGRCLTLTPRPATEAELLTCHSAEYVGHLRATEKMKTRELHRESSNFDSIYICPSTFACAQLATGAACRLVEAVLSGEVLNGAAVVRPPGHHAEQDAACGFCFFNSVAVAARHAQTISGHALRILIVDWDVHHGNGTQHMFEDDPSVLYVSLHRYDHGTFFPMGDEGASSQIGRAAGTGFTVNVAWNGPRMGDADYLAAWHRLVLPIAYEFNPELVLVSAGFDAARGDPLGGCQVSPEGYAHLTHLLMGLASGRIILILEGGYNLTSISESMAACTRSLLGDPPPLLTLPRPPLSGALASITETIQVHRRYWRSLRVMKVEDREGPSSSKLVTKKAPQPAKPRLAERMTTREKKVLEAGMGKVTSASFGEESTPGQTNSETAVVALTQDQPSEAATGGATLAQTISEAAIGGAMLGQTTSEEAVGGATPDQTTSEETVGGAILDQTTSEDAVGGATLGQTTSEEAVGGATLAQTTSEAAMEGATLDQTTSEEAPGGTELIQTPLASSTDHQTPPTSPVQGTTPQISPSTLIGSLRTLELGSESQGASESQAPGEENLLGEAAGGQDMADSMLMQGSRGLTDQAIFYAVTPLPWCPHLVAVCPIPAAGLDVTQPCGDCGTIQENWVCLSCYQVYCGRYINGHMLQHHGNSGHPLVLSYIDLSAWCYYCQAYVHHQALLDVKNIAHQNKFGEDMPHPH
Procedure: To measure the inhibition of HDAC6 activity, purified human HDAC6 (BPS Bioscience; Cat. No. 5006) is incubated with substrate Ac-Arg-Gly-Lys(Ac)-AMC peptide (Bachem Biosciences; Cat. No. 1-1925) for 1 hour at 30° C. in the presence of test compounds or vehicle DMSO control. The reaction is stopped with the HDAC inhibitor trichostatin A (Sigma; Cat. No. T8552) and the amount of Arg-Gly-Lys-AMC generated is quantitated by digestion with trypsin (Sigma; Cat. No. T1426) and subsequent measurement of the amount of AMC released using a fluorescent plate reader (Pherastar; BMG Technologies) set at Ex 340 nm and Em 460 nm. Concentration response curves are generated by calculating the fluorescence increase in test compound-treated samples relative to DMSO-treated controls, and enzyme inhibition (IC50) values are determined from those curves.

Row | Compound | IC50 [nM]
1 | CC(NC(=O)c1cc(F)cc(F)c1)c1cccc(C(=O)NO)c1 (centres unmarked) [Compound I-137, 3,5-difluoro-N-(1-{3-[(hydroxyamino)carbonyl]phenyl}ethyl)benzamide] | 500 to 1000
2 | Cc1cc(C)c(C(=O)NC(C)c2cccc(C(=O)NO)c2)[nH]1 (centres unmarked) [Compound I-91, N-(1-{3-[(hydroxyamino)carbonyl]phenyl}ethyl)-3,5-dimethyl-1H-pyrrole-2-carboxamide] | 500 to 1000
3 | O=C(NO)c1ccc([C@@H](NC(=O)C23CC4CC(CC(C4)C2)C3)c2ccccc2)cc1 [Compound I-259, N-[(S)-{4-[(hydroxyamino)carbonyl]phenyl}(phenyl)methyl]adamantane-1-carboxamide] | 500 to 1000

The next lines start with the values.

Row | IC50 [nM] | Compound
4 | 500 to 1000 | CC(NC(=O)c1ccc(C(C)(C)C)cc1)c1cccc(C(=O)NO)c1 (centres unmarked) [Compound I-268, 3-{1-[(4-tert-butylbenzoyl)amino]ethyl}-N-hydroxybenzamide]
5 | 500 to 1000 | C[C@H](NC(=O)C1(C)CCCCC1)c1ccc(C(=O)NO)cc1 [Compound I-273, N-hydroxy-4-((1S)-1-{[(1-methylcyclohexyl)carbonyl]amino}ethyl)benzamide]

same assay, conditions: bin: greater than 1 μM

Row | Compound | IC50 [nM]
6 | Cc1c(C(=O)NC(C)c2cccc(C(=O)NO)c2)cnn1-c1ccccc1 (centres unmarked) [Compound I-257, N-(1-{3-[(hydroxyamino)carbonyl]phenyl}ethyl)-5-methyl-1-phenyl-1H-pyrazole-4-carboxamide] | > 1000
7 | Cc1cc(C(=O)NC(C)c2ccc(C(=O)NO)cc2)nn1C (centres unmarked) [Compound I-241, N-(1-{4-[(hydroxyamino)carbonyl]phenyl}ethyl)-1,5-dimethyl-1H-pyrazole-3-carboxamide] | > 1000
8 | Cn1nc2c(c1C(=O)NC(c1ccc(C(=O)NO)cc1)C(C)(C)C)CCCC2 (centres unmarked) [Compound I-211, N-(1-{4-[(hydroxyamino)carbonyl]phenyl}-2,2-dimethylpropyl)-2-methyl-4,5,6,7-tetrahydro-2H-indazole-3-carboxamide] | > 1000
9 | Cc1nn(C)cc1C(=O)NC(C)c1cccc(C(=O)NO)c1 (centres unmarked) [Compound I-167, N-(1-{3-[(hydroxyamino)carbonyl]phenyl}ethyl)-1,3-dimethyl-1H-pyrazole-4-carboxamide] | > 1000
10 | C[C@@H](NC(=O)C(C)(C)C)c1cccc(C(=O)NO)c1 [Compound I-177, 3-{(1R)-1-[(2,2-dimethylpropanoyl)amino]ethyl}-N-hydroxybenzamide] | > 1000
11 | Cc1noc(C)c1C(=O)NC(C)c1cccc(C(=O)NO)c1 (centres unmarked) [Compound I-218, N-(1-{3-[(hydroxyamino)carbonyl]phenyl}ethyl)-3,5-dimethylisoxazole-4-carboxamide] | > 1000

The remaining lines, values ahead:

Row | IC50 [nM] | Compound
12 | > 1000 | CC(C)C(NC(=O)C(c1ccccc1)C(C)C)c1ccc(C(=O)NO)cc1 (centres unmarked) [Compound I-289, N-hydroxy-4-{2-methyl-1-[(3-methyl-2-phenylbutanoyl)amino]propyl}benzamide]
13 | > 1000 | CC(C)(C)C(NC(=O)Cc1csc2ccc(Cl)cc12)c1ccc(C(=O)NO)cc1 (centres unmarked) [Compound I-345, 4-(1-{[(5-chloro-1-benzothien-3-yl)acetyl]amino}-2,2-dimethylpropyl)-N-hydroxybenzamide]
14 | > 1000 | CC(NC(=O)CC1CC1)c1ccc(C(=O)NO)cc1 (centres unmarked) [Compound I-379, 4-{1-[(cyclopropylacetyl)amino]ethyl}-N-hydroxybenzamide]

same assay, conditions: purified human HDAC6, substrate Ac-Arg-Gly-Lys(Ac)-AMC, 1 hour at 30° C.; reported as bins

Row | Compound | IC50 [nM]
15 | Cc1nc2cc(C(=O)NC(C)c3ccc(C(=O)NO)cc3)ccc2s1 (centres unmarked) [Compound I-230, N-(1-{4-[(hydroxyamino)carbonyl]phenyl}ethyl)-2-methyl-1,3-benzothiazole-5-carboxamide] | < 100
16 | CC(C)C(NC(=O)c1csc(-c2ccccc2)n1)c1ccc(C(=O)NO)cc1 (centres unmarked) [Compound I-172, N-(1-{4-[(hydroxyamino)carbonyl]phenyl}-2-methylpropyl)-2-phenyl-1,3-thiazole-4-carboxamide] | < 100
17 | Cc1ccc(C(=O)NC(C)c2ccc(C(=O)NO)cc2)s1 (centres unmarked) [Compound I-147, N-(1-{4-[(hydroxyamino)carbonyl]phenyl}ethyl)-5-methylthiophene-2-carboxamide] | < 100
18 | CCC[C@@H](NC(=O)c1cc(Cl)c(Cl)n1C)c1ccc(C(=O)NO)cc1 [Compound I-245, 4,5-dichloro-N-((1R)-1-{4-[(hydroxyamino)carbonyl]phenyl}butyl)-1-methyl-1H-pyrrole-2-carboxamide] | < 100
19 | COc1cc(C(=O)NC(C)c2ccc(C(=O)NO)cc2)ccc1F (centres unmarked) [Compound I-164, 4-fluoro-N-(1-{4-[(hydroxyamino)carbonyl]phenyl}ethyl)-3-methoxybenzamide] | < 100
20 | Cc1ccc(NC(=O)NC(C)c2ccc(C(=O)NO)cc2)cc1F (centres unmarked) [Compound I-120, 4-[1-({[(3-fluoro-4-methylphenyl)amino]carbonyl}amino)ethyl]-N-hydroxybenzamide] | < 100
21 | Cc1cccc(C)c1NC(=O)NC(C)c1ccc(C(=O)NO)cc1 (centres unmarked) [Compound I-156, 4-[1-({[(2,6-dimethylphenyl)amino]carbonyl}amino)ethyl]-N-hydroxybenzamide] | 100 to 500
22 | Cc1ccc(NC(=O)NC(C)c2ccc(C(=O)NO)cc2)cc1C (centres unmarked) [Compound I-55, 4-[1-({[(3,4-dimethylphenyl)amino]carbonyl}amino)ethyl]-N-hydroxybenzamide] | < 100
23 | CC(NC(=O)c1ccc(-c2ccccc2)cc1)c1cccc(C(=O)NO)c1 (centres unmarked) [Compound I-142, N-(1-{3-[(hydroxyamino)carbonyl]phenyl}ethyl)biphenyl-4-carboxamide] | 100 to 500
24 | CC(C)c1cc(C(=O)NC(C)c2ccc(C(=O)NO)cc2)n(C)n1 (centres unmarked) [Compound I-186, N-(1-{4-[(hydroxyamino)carbonyl]phenyl}ethyl)-3-isopropyl-1-methyl-1H-pyrazole-5-carboxamide] | < 100
25 | CC(NC(=O)NC(C)c1ccc(C(=O)NO)cc1)c1ccccc1 (centres unmarked) [Compound I-196, N-hydroxy-4-[1-({[(1-phenylethyl)amino]carbonyl}amino)ethyl]benzamide] | 100 to 500
26 | Cc1ccccc1CNC(=O)NC(C)c1ccc(C(=O)NO)cc1 (centres unmarked) [Compound I-76, N-hydroxy-4-[1-({[(2-methylbenzyl)amino]carbonyl}amino)ethyl]benzamide] | 100 to 500
27 | CC(NC(=O)c1cc2ccccc2[nH]1)c1cccc(C(=O)NO)c1 (centres unmarked) [Compound I-227, N-(1-{3-[(hydroxyamino)carbonyl]phenyl}ethyl)-1H-indole-2-carboxamide] | 100 to 500

Second part, the molecule after the results:

Row | IC50 [nM] | Compound
28 | 100 to 500 | Cc1cc(C(=O)NO)ccc1C(C)NC(=O)c1cc2ccccc2s1 (centres unmarked) [Compound I-485, N-(1-{4-[(hydroxyamino)carbonyl]-2-methylphenyl}ethyl)-1-benzothiophene-2-carboxamide]
29 | < 100 | CCC[C@@H](NC(=O)c1ccc(-c2ccccc2)cc1)c1ccc(C(=O)NO)cc1 [Compound I-274, N-((1R)-1-{4-[(hydroxyamino)carbonyl]phenyl}butyl)biphenyl-4-carboxamide]
30 | < 100 | O=C(NO)c1ccc([C@H](NC(=O)c2cc3ccccc3o2)C(F)(F)F)cc1 [Compound I-400, N-((1S)-2,2,2-trifluoro-1-{4-[(hydroxyamino)carbonyl]phenyl}ethyl)-1-benzofuran-2-carboxamide]
31 | < 100 | C[C@@H](NC(=O)Nc1cccc2ccccc12)c1ccc(C(=O)NO)cc1 [Compound I-527, N-hydroxy-4-((1R)-1-{[(1-naphthylamino)carbonyl]amino}ethyl)benzamide]
32 | < 100 | CC(NC(=O)Nc1ccc(C(F)(F)F)cc1)c1ccc(C(=O)NO)cc1 (centres unmarked) [Compound I-399, N-hydroxy-4-{1-[({[4-(trifluoromethyl)phenyl]amino}carbonyl)amino]ethyl}benzamide]
